Experimental data: patent publication US12150939B2, “Therapeutic drug for ectopic ossification having mechanism to inhibit PAR1” (NATIONAL UNIVERSITY CORPORATION KUMAMOTO UNIVERSITY, priority 2015, dated 2024)

Assays:
FOP-derived fibroblasts [1] = test: Differentiation of FOP-derived fibroblasts to osteoblasts in the absence of serum when using each inhibitor (ALP immunostaining and ALP activity); assay type: cell-based, human; conditions: BMP6 and TFLLR stimulation
NOG mice = test: Ectopic ossification in teratomas from FOP patient iPS cells implanted into testicle of NOG mice, PAR1 inhibitor (CT); assay type: in vivo; conditions: 0.2 mg/kg/day intraperitoneally once daily from 9 weeks after implantation
[2] = tested on: normal subject-derived fibroblasts; test: PAR1 mRNA expression by BMP6 stimulation in the presence of serum (qPCR), normal subject-derived fibroblasts; assay type: cell-based, human; conditions: BMP6 50 ng/mL, over time
Protocol: (§1) • (1) Fibroblasts were created from skin biopsy explants from FOP patients and normal subjects under informed consent by a protocol approved by Ethics committee. • (2) Skin samples from patients and from normal subjects were finely cut and cultured in DMEM medium supplemented with 10% fetal bovine serum (FBS). • (3) After emergence of fibroblasts was observed, the fibroblasts were grown to introduce a reprogramming gene. The grown fibroblasts were then put in a solution for freezing containing 10% DMSO+90% FBS and cryopreserved. <2. […] Intensity of bands was evaluated by Image J software (NIH, USA). • (4) In immunoprecipitation, 293T cells in which Smads were overexpressed, and KDM6B or LSD1 were lysed in RIPA buffer (50 mM Tris-HCl, pH 7.4, 1 mM EDTA, 150 mM NaCl, 1% NP-40, protease/phosphatase inhibitor cocktail). […]

FOP-derived fibroblasts [3] = test: Differentiation of FOP-derived fibroblasts to osteoblasts by BMP6 / TFLLR stimulation in the absence of serum (ALP immunostaining and ALP activity); assay type: cell-based, human; conditions: single stimulus
Protocol: as §1

FOP-derived fibroblasts [4] = test: PAR1 mRNA expression by BMP6 stimulation in the presence of serum (qPCR), FOP-derived fibroblasts; assay type: cell-based, human; conditions: BMP6 50 ng/mL, over time, compared to normal subject-derived fibroblasts
Protocol: as §1

CC(C)c1ccc(Cn2ccc3c4c(N)nc(NC5CC5)nc4ccc32)cc1 [SCH79797, N3-cyclopropyl-7-[[4-(1-methylethyl)phenyl]methyl]-7H-pyrrolo[3,2-f]quinazoline-1,3-diamine]
ALP activity (FOP-derived fibroblasts [1]; 200 nM): largely decreased | ALP expression (immunostaining) (FOP-derived fibroblasts [1]; 200 nM): largely decreased

CCOC(=O)N[C@@H]1CC[C@@H]2[C@@H](C1)C[C@H]1C(=O)O[C@H](C)[C@H]1[C@H]2/C=C/c1ccc(-c2cccc(F)c2)cn1 [Vorapaxar, ethyl [(1R,3aR,4aR,6R,8aR,9S,9aS)-9-{(1E)-2-[5-(3-fluorophenyl)pyridin-2-yl]ethen-1-yl}-1-methyl-3-oxododecahydronaphtho[2,3-c]furan-6-yl]carbamate]
ALP activity (FOP-derived fibroblasts [1]; 1 μM): largely decreased | ALP expression (immunostaining) (FOP-derived fibroblasts [1]; 1 μM): largely decreased | bone volume in the teratomas relative to vehicle (NOG mice): about one third | teratoma volume calculated from CT images versus vehicle (NOG mice): a significant difference in the teratoma volume was not observed | bones found in the teratomas (CT images) versus vehicle (NOG mice; after 2 weeks of administration): notably less

B1: BMP6: bone morphogenetic protein used as osteogenic stimulus (protein, UniProt P22004 375-513, looked up)
Bone morphogenetic protein 6: SASSRRRQQSRNRSTQSQDVARVSSASDYNSSELKTACRKHELYVSFQDLGWQDWIIAPKGYAANYCDGECSFPLNAHMNATNHAIVQTLVHLMNPEYVPKPCCAPTKLNAISVLYFDDNSNVILKKYRNMVVRACGCH
mRNA expression level of PAR1 [2]: significantly increased | ALP activity compared to control (FOP-derived fibroblasts [3]): significantly increased | ALP expression (immunostaining) (FOP-derived fibroblasts [3]): observed | mRNA expression level of PAR1 (FOP-derived fibroblasts [4]): remarkable increase
